*1 amine or outer side, *2 acyl side, *3 side chain or, on linkers, in order; H or OH if unused. Where a SMILES comes first, the peptide text is derived from it. Bridges are numbered along the chain shown (N, C = ends). Side-chain parts run from the residue outwards. [ ]: non-standard residue; d: D form. The star is where a group is joined. ξ: configuration not given here. X33 = C[N+](C)(CCNC(=O)CCOCCOCCOCCOCCOCCOCCOCCOCCOCCOCCOCCOCCNC(=O)CC[C@H](CC(=O)CCCCCCCCCCCCCCCCC(=O)O)C(=O)O)CC(=O)*; Me3N+(CH2)2O(CH2)2O(CH2)2CO = C[N+](C)(C)CCOCCOCCC(=O)*; PEG12 = NCCOCCOCCOCCOCCOCCOCCOCCOCCOCCOCCOCCOCCC(=O)O; Trp(7-Me) = Cc1cccc2c(C[C@H](N)C(=O)O)c[nH]c12; C18 diacid = O=C(O)CCCCCCCCCCCCCCCCC(=O)*; γGlu = O=C(O)[C@H](CCC(=O)[*:2])N[*:1]; 2Nal = N[C@@H](Cc1ccc2ccccc2c1)C(=O)O; AEF = NCCOc1ccc(C[C@H](N)C(=O)O)cc1; X2 = C[N+](C)(C)C[C@@H](CC(=O)O)N*; 3Pal = N[C@@H](Cc1cccnc1)C(=O)O; Lys(Me) = CNCCCC[C@H](N)C(=O)O; Pen = CC(C)(S)[C@H](N)C(=O)O; Suc = O=C(CCC(=O)[*:2])[*:1]; ξ3Pal = NC(Cc1cccnc1)C(=O)O; Ac6c = NC1(C(=O)O)CCCCC1; Thp = NC1(C(=O)O)CCOCC1; AEEA = NCCOCCOCC(=O)O; Sar = CNCC(=O)O
How the values were obtained:
[1] = target: T1, IL-23R (Homo sapiens, UniProt Q5VWK5); test: IL23R Reporter Assay; format: cell-based; conditions: HEK293 cells containing IL-23R, IL-12Rβ1 and STAT-inducible firefly luciferase reporter; 10 ng/mL IL-23 (EC90); 5 h
T1 construct: HEK293 cells containing IL-23R, IL-12Rβ1 and a firefly luciferase reporter gene driven by a STAT-inducible promoter (Promega); host or cells: HEK293
T1 sequence (Q5VWK5 24-629): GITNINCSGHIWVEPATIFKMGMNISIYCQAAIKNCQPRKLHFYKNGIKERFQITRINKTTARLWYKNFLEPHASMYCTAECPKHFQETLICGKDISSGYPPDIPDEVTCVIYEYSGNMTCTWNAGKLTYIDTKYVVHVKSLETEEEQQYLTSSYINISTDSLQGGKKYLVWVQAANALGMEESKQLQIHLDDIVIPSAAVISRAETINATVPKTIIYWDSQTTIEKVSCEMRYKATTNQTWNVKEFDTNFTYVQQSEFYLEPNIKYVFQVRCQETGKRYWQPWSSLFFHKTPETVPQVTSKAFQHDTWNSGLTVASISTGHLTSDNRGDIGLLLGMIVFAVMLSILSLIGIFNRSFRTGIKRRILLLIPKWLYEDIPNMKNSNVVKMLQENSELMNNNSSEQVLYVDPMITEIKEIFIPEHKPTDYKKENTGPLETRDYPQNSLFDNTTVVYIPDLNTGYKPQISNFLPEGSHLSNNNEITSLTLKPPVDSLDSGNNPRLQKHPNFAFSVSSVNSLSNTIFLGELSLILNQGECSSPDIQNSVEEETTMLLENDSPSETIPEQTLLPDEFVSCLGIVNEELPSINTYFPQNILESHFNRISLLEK
In short: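 HEK293 cells carrying IL-23R, IL-12Rβ1 and a STAT-driven firefly luciferase reporter (4000 cells/well) received compound, then 10 ng/mL IL-23 solution (EC90), and were incubated for 5 h at 37° C. BioGlo luminescence was normalised to IL-23 alone (0%) and 30 μM control inhibitor (100%). IC50 came from a 4-parameter Hill fit.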

[2] = system: IL-23-stimulated phosphorylated STAT3 in peripheral blood mononuclear cells (PBMCs); test: PBMC pSTAT3 Assay; format: cell-based; conditions: PBMCs from healthy donors; 30 min preincubation with peptide; IL-23 5 ng/mL for 30 min; phospho-STAT3 by MSD
In short: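 Healthy-donor PBMCs expanded 4 days on anti-CD3 with 100 ng/mL IL-1β, starved ~4 h in RPMI-0.1% BSA, preincubated 30 min with peptide, then stimulated 30 min at 37 °C with 5 ng/mL IL-23. Lysate pSTAT3 measured by MSD phospho-STAT panel; IC50 derived.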

For `CC(=O)N(C)CCCC[C@@H]1NC(=O)[C@H](Cc2c[nH]c3c(C)cccc23)NC(=O)[C@H]([C@@H](C)O)NC(=O)[C@H](CC(=O)N(C)C)NC(=O)[C@@H](NC(=O)CCOCCOCC[N+](C)(C)C)C(C)(C)SSC(C)(C)[C@@H](C(=O)N[C@@H](Cc2ccc(OCCNC(=O)C[N+](C)(C)CCNC(=O)CCOCCOCCOCCOCCOCCOCCOCCOCCOCCOCCOCCOCCNC(=O)CC[C@H](CC(=O)CCCCCCCCCCCCCCCCC(=O)O)C(=O)O)cc2)C(=O)N[C@@H](Cc2ccc3ccccc3c2)C(=O)NC2(C(=O)N[C@@H](CCCCN(C)C(C)=O)C(=O)N[C@@H](CC(N)=O)C(=O)NC(Cc3cccnc3)C(=O)N(C)CC(=O)N(C)C)CCCCC2)NC1=O` (stereo partly drawn) [compound 141, cPEG3aCO-Pen(3)-N(N(Me)2)-T-7MeW-K(NMeAc)-Pen(3)-AEF(SP6PEG12gEC18OH)-2Nal-THP-K(NMeAc)-N-3Pya-Sar-CON(Me)2] ({Me3N+(CH2)2O(CH2)2O(CH2)2CO}-[Pen]D(NMe2)T[Trp(7-Me)][Lys(Me)](Ac)[Pen][AEF](X33)[2Nal][Ac6c][Lys(Me)](Ac)N[ξ3Pal][Sar]-NMe2; disulfide 1-6), the IC50 [1] was < 50 nM and the IC50 [2] was < 0.5 nM.

For `CC(=O)N[C@H](CCCNC(=N)N)C(=O)N[C@@H]1C(=O)N[C@@H](CC(N)=O)C(=O)N[C@@H]([C@@H](C)O)C(=O)N[C@@H](Cc2c[nH]c3c(C)cccc23)C(=O)N[C@@H](CCCCN(C)C(=O)CCOCCOCC[N+](C)(C)C)C(=O)N[C@H](C(=O)N[C@@H](Cc2ccc(OCCN)cc2)C(=O)N[C@@H](Cc2ccc3ccccc3c2)C(=O)NC2(C(=O)N[C@@H](CCC(=O)O)C(=O)N[C@@H](CC(N)=O)C(=O)N[C@@H](Cc3cccnc3)C(=O)N(C)CC(=O)N[C@@H](CCCCNC(=O)COCCOCCNC(=O)COCCOCCNC(=O)CC[C@H](NC(=O)CCCCCCCCCCCCCCCCC(=O)O)C(=O)O)C(N)=O)CCOCC2)C(C)(C)SSC1(C)C` [compound 70, MeCO-r-Pen(3)-N-T-7MeW-K(NMecPEG3a)-Pen(3)-AEF-2Nal-THP-E-N-3Pya-Sar-K(PEG2PEG2C18OH)-CONH2] (Ac-[dR][Pen]NT[Trp(7-Me)][Lys(Me)](Me3N+(CH2)2O(CH2)2O(CH2)2CO)[Pen][AEF][2Nal][Thp]EN[3Pal][Sar]K([AEEA-AEEA-γGlu-C18 diacid])-NH2; disulfide 2-7), the IC50 [1] was < 50 nM and the IC50 [2] was < 0.5 nM.

In the case of `CC(=O)NCCCC[C@@H]1NC(=O)[C@H](Cc2c[nH]c3c(C)cccc23)NC(=O)[C@H]([C@@H](C)O)NC(=O)[C@H](CC(N)=O)NC(=O)[C@@H](NC(=O)[C@@H](CCCCNC(=O)CCOCCOCCOCCOCCOCCOCCOCCOCCOCCOCCOCCOCCNC(=O)CC[C@H](NC(=O)CCCCCCCCCCCCCCCCC(=O)O)C(=O)O)NC(C)=O)C(C)(C)SSC(C)(C)[C@@H](C(=O)N[C@@H](Cc2ccc(OCCN)cc2)C(=O)N[C@@H](Cc2ccc3ccccc3c2)C(=O)NC2(C(=O)N[C@@H](CCCCNC(C)=O)C(=O)N[C@@H](CC(N)=O)C(=O)N[C@@H](Cc3cccnc3)C(=O)N(C)CC(N)=O)CCOCC2)NC1=O` [compound 98, MeCO-k(PEG12gEC18OH)-Pen(3)-N-T-7MeW-K(Ac)-Pen(3)-AEF-2Nal-THP-K(Ac)-N-3Pya-Sar-CONH2] (Ac-[dK]([PEG12-γGlu-C18 diacid])[Pen]NT[Trp(7-Me)]K(Ac)[Pen][AEF][2Nal][Thp]K(Ac)N[3Pal][Sar]-NH2; disulfide 2-7), the IC50 [1] is reported as < 50 nM and the IC50 [2] is reported as < 0.5 nM.

In the case of `CC(=O)NCCCC[C@@H]1NC(=O)[C@H](Cc2c[nH]c3c(C)cccc23)NC(=O)[C@H]([C@@H](C)O)NC(=O)[C@H](CC(N)=O)NC(=O)[C@@H](NC(=O)[C@@H](CCCCNC(=O)COCCOCCNC(=O)COCCOCCNC(=O)CC[C@H](NC(=O)CCCCCCCCCCCCCCCCC(=O)O)C(=O)O)NC(C)=O)C(C)(C)SSC(C)(C)[C@@H](C(=O)N[C@@H](Cc2ccc(OCCN)cc2)C(=O)N[C@@H](Cc2ccc3ccccc3c2)C(=O)NC2(C(=O)N[C@@H](CCCCNC(=O)CCC(=O)N[C@H](CC(=O)O)C[N+](C)(C)C)C(=O)N[C@@H](CC(N)=O)C(=O)N[C@@H](Cc3cccnc3)C(=O)N(C)CC(N)=O)CCOCC2)NC1=O` [compound 33, MeCO-k(PEG2PEG2gEC18OH)-Pen(3)-N-T-7MeW-K(Ac)-Pen(3)-AEF-2Nal-THP-K(d)-N-3Pya-Sar-CONH2] (Ac-[dK]([AEEA-AEEA-γGlu-C18 diacid])[Pen]NT[Trp(7-Me)]K(Ac)[Pen][AEF][2Nal][Thp]K([Suc-X2])N[3Pal][Sar]-NH2; disulfide 2-7), the IC50 [1] is reported as < 50 nM and the IC50 [2] is reported as < 0.5 nM.
